What is called AC50 is the concentration giving half of the maximal activity seen. Lower therefore signals greater potency. Usually inhibition stands for the change of the read-out against control, counted positive when it falls. Lower therefore signals a response near the control.

From ChEMBL document CHEMBL1133193, “4-[3-(5,6,7,8-Tetrahydro-5,5,8,8-tetramethyl-2-naphthalenyl)phenyl]benzoic acid and heterocyclic-bridged analogues are novel retinoic acid receptor subtype and retinoid X receptor alpha agonists” (Bioorg Med Chem Lett, 2000) come the findings set out here.

Test [1] addresses T1, Retinoic acid receptor gamma (Homo sapiens, UniProt P13631).
T1 sequence (P13631 whole entry): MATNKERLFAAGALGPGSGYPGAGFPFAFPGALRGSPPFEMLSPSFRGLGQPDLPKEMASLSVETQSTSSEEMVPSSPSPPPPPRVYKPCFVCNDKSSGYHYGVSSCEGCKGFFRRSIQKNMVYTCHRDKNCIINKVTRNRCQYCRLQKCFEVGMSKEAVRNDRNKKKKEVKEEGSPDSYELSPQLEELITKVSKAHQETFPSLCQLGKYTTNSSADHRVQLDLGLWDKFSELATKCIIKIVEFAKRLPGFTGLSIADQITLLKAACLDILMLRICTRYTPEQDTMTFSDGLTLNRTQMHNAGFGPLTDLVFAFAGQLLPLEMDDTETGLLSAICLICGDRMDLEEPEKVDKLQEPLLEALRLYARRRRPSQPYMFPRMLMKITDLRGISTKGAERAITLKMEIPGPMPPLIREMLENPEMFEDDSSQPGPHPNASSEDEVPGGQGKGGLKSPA
In words: Transcriptional activation in CV-1 cells expressing retinoic acid gamma receptor. The format is cell-based, Cercopithecidae.

In test [2] the target is T2, Retinoic acid receptor RXR-alpha (Homo sapiens, UniProt P19793).
T2 sequence (P19793 whole entry): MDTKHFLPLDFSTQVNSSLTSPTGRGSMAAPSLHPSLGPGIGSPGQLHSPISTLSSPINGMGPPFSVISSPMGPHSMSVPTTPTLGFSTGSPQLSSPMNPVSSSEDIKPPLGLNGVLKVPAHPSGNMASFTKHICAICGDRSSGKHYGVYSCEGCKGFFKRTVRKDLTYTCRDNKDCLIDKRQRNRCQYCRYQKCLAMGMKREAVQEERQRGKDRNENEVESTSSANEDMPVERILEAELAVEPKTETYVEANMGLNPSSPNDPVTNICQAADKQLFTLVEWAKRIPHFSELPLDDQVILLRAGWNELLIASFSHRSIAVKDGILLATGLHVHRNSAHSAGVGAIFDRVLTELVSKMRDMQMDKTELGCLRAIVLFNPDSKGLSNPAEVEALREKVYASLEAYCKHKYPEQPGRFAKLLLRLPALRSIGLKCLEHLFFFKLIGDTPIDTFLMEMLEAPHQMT
The test can be described thus: Transcriptional activation in CV-1 cells expressing Retinoic acid receptor RXR-alpha. The format is cell-based, Cercopithecidae.

For test [3], the target named is T3, Retinoic acid receptor RXR-alpha (Homo sapiens) (UniProt P19793).
T3 sequence (whole entry): T2 sequence (P19793 whole entry)
In words: Percent activation of Retinoic acid receptor RXR-alpha at 1 uM relative to 1 uM 9-cis-retinoic acid.

The target of test [4] is T4, Retinoic acid receptor beta (Homo sapiens, UniProt P10826).
T4 sequence (P10826 whole entry): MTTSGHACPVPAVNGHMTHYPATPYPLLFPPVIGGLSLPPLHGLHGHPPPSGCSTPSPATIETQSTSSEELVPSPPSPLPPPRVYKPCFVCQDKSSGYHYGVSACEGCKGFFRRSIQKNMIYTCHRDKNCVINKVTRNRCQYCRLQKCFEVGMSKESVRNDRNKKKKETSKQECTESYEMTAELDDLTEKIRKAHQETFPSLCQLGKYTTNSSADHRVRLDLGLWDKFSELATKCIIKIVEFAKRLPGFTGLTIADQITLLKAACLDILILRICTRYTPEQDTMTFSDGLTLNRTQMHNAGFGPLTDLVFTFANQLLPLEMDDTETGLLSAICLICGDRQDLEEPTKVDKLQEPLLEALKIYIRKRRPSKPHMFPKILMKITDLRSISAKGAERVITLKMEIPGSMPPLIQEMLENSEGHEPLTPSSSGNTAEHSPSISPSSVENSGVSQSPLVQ
The test can be described thus: Transcriptional activation in CV-1 cells expressing Retinoic acid receptor beta. The test is classed as cell-based, Cercopithecidae.

The target of test [5] is T5, Retinoic acid receptor alpha (Homo sapiens, UniProt P10276).
T5 sequence (P10276 whole entry): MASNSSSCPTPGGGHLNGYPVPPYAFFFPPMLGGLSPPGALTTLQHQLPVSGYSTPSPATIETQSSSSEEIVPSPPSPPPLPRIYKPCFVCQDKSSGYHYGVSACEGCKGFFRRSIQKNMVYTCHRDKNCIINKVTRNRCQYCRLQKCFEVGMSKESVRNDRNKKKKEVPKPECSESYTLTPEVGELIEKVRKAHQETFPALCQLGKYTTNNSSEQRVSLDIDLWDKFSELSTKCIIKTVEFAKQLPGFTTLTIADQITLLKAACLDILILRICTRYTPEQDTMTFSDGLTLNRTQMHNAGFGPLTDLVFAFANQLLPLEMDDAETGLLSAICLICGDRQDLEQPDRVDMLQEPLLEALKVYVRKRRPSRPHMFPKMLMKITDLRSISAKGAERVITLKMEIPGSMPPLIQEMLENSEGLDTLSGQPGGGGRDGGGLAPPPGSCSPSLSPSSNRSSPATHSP
The test can be described thus: Transcriptional activation in CV-1 cells expressing Retinoic acid receptor alpha. The test is classed as cell-based, Cercopithecidae.

Test [6] has as its system T47D. The test can be described thus: Inhibition of T47D retinoid sensitive breast carcinoma cell proliferation at 1 uM. The format is functional. The settings on record: Homo sapiens.
Test [7] deals with ZR-75-1. In words: Inhibition of ZR-75-1 retinoid sensitive breast carcinoma cell proliferation at 1 uM. The format is functional. The settings on record: Homo sapiens.
For test [8], the system named is MDA-MB-231. In words: Growth of MDA-MB-231 retinoid resistant breast carcinoma cells at 1 uM. To be noted: Homo sapiens.

For `Cc1cc2c(cc1-c1cccc(-c3ccc(C(=O)O)cc3)n1)C(C)(C)CCC2(C)C`, the concentration at half-maximal activity (AC50) was 1000 nM in test [1], more than 1000 nM in test [2], more than 1000 nM in test [4] and more than 1000 nM in test [5]. The Activation in test [3] was 0%.
`CC1(C)CCC(C)(C)c2cc(-c3cccc(-c4ccc(C(=O)O)cc4)n3)ccc21`: the AC50 was more than 1000 nM in test [1], more than 1000 nM in test [2], 140 nM in test [4] and 370 nM in test [5]. For the same compound, in test [3], the Activation came to 17%.
For the compound `CC1=C(/C=C/C(C)=C\C=C\C(C)=C\C(=O)O)C(C)(C)CCC1` [ALITRETINOIN], the inhibition at 1 µM worked out at 35% in test [6] and 59% in test [7]. For the same compound, in test [8], the growth relative to control at 1 µM worked out at 69%.
In the same order, the values of `CC1=C(/C=C/C(C)=C/C=C/C(C)=C/C(=O)O)C(C)(C)CCC1` [TRETINOIN] are 39%, 70% and 94%.
For the compound `Cc1ccc(-c2ccc(C(=O)O)cc2)cc1-c1cc2c(cc1C)C(C)(C)CCC2(C)C`, the half-maximal activity concentration (AC50) in test [1] was 1 nM; in test [2], 430 nM; in test [4], 10 nM; in test [5], more than 1000 nM. In test [3], this compound yielded an Activation of 70%.
In the same order, the values of `CC1(C)CCC(C)(C)c2cc(-c3ccc4cc(C(=O)O)ccc4c3)ccc21` are 68 nM, more than 1000 nM, 52 nM, more than 1000 nM and 0%.
As to `CC1(C)CCC(C)(C)c2cc(-c3cccc(-c4ccc(C(=O)O)cc4)c3)ccc21`, the half-maximal activity concentration (AC50) in test [1] was 2.3 nM; in test [2], more than 1000 nM; in test [4], 4.3 nM; in test [5], 1 nM. In addition, in test [3], the Activation stood at 27%. Besides, the figures for the inhibition at 1 µM in test [6] and in test [7] were 32% and 47%, respectively. This compound registered a growth relative to control at 1 µM in test [8] of 80%.
With `Cc1cc2c(cc1-c1ncc(-c3ccc(C(=O)O)cc3)s1)C(C)(C)CCC2(C)C`, the half-maximal activity concentration (AC50) in test [1] is 220 nM; in test [2], more than 1000 nM; in test [4], 740 nM; in test [5], more than 1000 nM. For the same compound, the Activation in test [3] was 8%.
Turning to `Cc1ccc(-c2ccc(C(=O)O)cc2)cc1-c1ccc2c(c1)C(C)(C)CCC2(C)C`, the AC50 in test [1] was less than 1 nM; in test [2] it was 135 nM; in test [4], less than 1 nM; in test [5], 79 nM. In test [3], this compound showed an Activation of 85%. For the same compound, the inhibition at 1 µM is 35% in test [6] and 49% in test [7]. For the same compound, in test [8], the growth relative to control at 1 µM was 75%.
The compound `C/C(=C\c1ccc(C(=O)O)cc1)c1ccc2c(c1)C(C)(C)CCC2(C)C` showed an AC50 in test [2] of more than 1000 nM. In test [3], the Activation was found to be 0%.
